The values that follow come from patent publication US20150065345A1, “1,2,4 - TRIAZOLE DERIVATIVES AS HERBICIDALS” (SYNGENTA LIMITED, priority 2012, published 2015).

Holding throughout (format): in vivo
The test system of experiment [1] is Alopecurus myosuroides (ALOMY). Description: Glasshouse herbicide test, post-emergence. As to conditions: 1000 g/h, evaluated after 13 days, five point scale. As for the experimental part: (§1) Seeds of a variety of test species are sown in standard soil in pots Alopecurus myosuroides (ALOMY), Amaranthus retoflexus (AMARE), Setaria faberi (SETFA), Echinochloa crus-galli (ECHCG), Lolium perenne (LOLPE), Solanum nigrum (SOLNI), Stellaria media (STEME) and Digitaria sanguinalis (DIGSA). After cultivation for one day (pre-emergence) or after 8 days cultivation (post-emergence) under controlled conditions in a glasshouse (at 24/16° C., day/night; 14 hours light; 65% humidity), the plants are sprayed with an aqueous spray solution derived from the formulation of the technical active ingredient in acetone/water (50:50) solution containing 0.5% Tween 20 (polyoxyethelyene sorbitan monolaurate, CAS RN 9005-64-5). Compounds are applied at 1000 g/h. The test plants are then grown in a glasshouse under controlled conditions in a glasshouse (at 24/16° C., day/night; 14 hours light; 65% humidity) and watered twice daily. After 13 days for pre and post-emergence, the test is evaluated for the percentage damage caused to the plant. The biological activities are shown in the following table on a five point scale (5=80-100%; 4=60-79%; 3=40-59%; 2=20-39%; 1=0-19%).

The subject of experiment [2] is Amaranthus retoflexus (AMARE). Nature of the experiment: Glasshouse herbicide test, post-emergence. Conditions: 1000 g/h, evaluated after 13 days, five point scale, second table. The method, then:
as §1

Experiment [3] has as its system Echinochloa crus-galli (ECHCG). Description: Glasshouse herbicide test, post-emergence. Conditions: 1000 g/h, evaluated after 13 days, five point scale. As for the experimental part: as §1
Experiment [4] has as its system IPOHE. Nature of the experiment: Glasshouse herbicide test, post-emergence. As to conditions: 1000 g/h, evaluated after 13 days, five point scale. The method, then: [The procedure below names another species; the source lists this species under the same test.] as §1
In experiment [5] the test system is Setaria faberi (SETFA). Description: Glasshouse herbicide test, post-emergence. As to conditions: 1000 g/h, evaluated after 13 days, five point scale. As for the experimental part:
as §1

Experiment [6] deals with Solanum nigrum (SOLNI). Description: Glasshouse herbicide test, post-emergence. As to conditions: 1000 g/h, evaluated after 13 days, five point scale. The method, then: as §1
Experiment [7] concerns Alopecurus myosuroides (ALOMY). Nature of the experiment: Glasshouse herbicide test, pre-emergence. As to conditions: 1000 g/h, evaluated after 13 days, five point scale. As for the experimental part:
as §1

The subject of experiment [8] is Amaranthus retoflexus (AMARE). Nature of the experiment: Glasshouse herbicide test, pre-emergence. Conditions: 1000 g/h, evaluated after 13 days, five point scale, second table. The method, then:
as §1

Experiment [9] relates to Echinochloa crus-galli (ECHCG). Nature of the experiment: Glasshouse herbicide test, pre-emergence. Conditions: 1000 g/h, evaluated after 13 days, five point scale. As for the experimental part:
as §1

The subject of experiment [10] is IPOHE. Nature of the experiment: Glasshouse herbicide test, pre-emergence. As to conditions: 1000 g/h, evaluated after 13 days, five point scale. The method, then:
[The procedure below names another species; the source lists this species under the same test.] as §1

Experiment [11] deals with Setaria faberi (SETFA). Nature of the experiment: Glasshouse herbicide test, pre-emergence. Conditions: 1000 g/h, evaluated after 13 days, five point scale. The method, then: as §1
In experiment [12] the test system is Solanum nigrum (SOLNI). Nature of the experiment: Glasshouse herbicide test, pre-emergence. Conditions: 1000 g/h, evaluated after 13 days, five point scale. As for the experimental part: as §1

The structures appear in SMILES notation.

`Cn1cnnc1NC(=O)c1ccc(C(F)(F)F)cc1S(C)(=O)=O` [Compound 1.008]: the “percentage damage caused to the plant, ALOMY, POST Application” value in experiment [1] is listed as 3 (3=40-59%). Further, in [2], the “percentage damage caused to the plant, AMARE, POST Application” value is on record as 5 (5=80-100%). The “percentage damage caused to the plant, ECHCG, POST Application” value in [3] is on record as 4 (4=60-79%). Moreover, the “percentage damage caused to the plant, IPOHE, POST Application” value in the experiment on IPOHE [4] is 5 (5=80-100%). Also, in the experiment on Setaria faberi (SETFA) [5], the “percentage damage caused to the plant, SETFA, POST Application” value is on record as 3 (3=40-59%). Also, the “percentage damage caused to the plant, SOLNI, POST Application” value in the experiment on Solanum nigrum (SOLNI) [6] is on record as 5 (5=80-100%). Besides, in [7], the “percentage damage caused to the plant, ALOMY, PRE Application” value is recorded as 2 (2=20-39%). In [8], the “percentage damage caused to the plant, AMARE, PRE Application” value was 5 (5=80-100%). Further, the “percentage damage caused to the plant, ECHCG, PRE Application” value in [9] was 5 (5=80-100%). Further, the “percentage damage caused to the plant, IPOHE, PRE Application” value with IPOHE [10] was 4 (4=60-79%). Also, in the experiment on Setaria faberi (SETFA) [11], the “percentage damage caused to the plant, SETFA, PRE Application” value is reported as 3 (3=40-59%). In addition, the “percentage damage caused to the plant, SOLNI, PRE Application” value with Solanum nigrum (SOLNI) [12] was 5 (5=80-100%).

Consider `Cc1nnc(NC(=O)c2ccc(C(F)(F)F)cc2S(C)(=O)=O)n1C` [Compound 1.009], for which the “percentage damage caused to the plant, ALOMY, POST Application” value in experiment [1] is given as 2 (2=20-39%). Further, the “percentage damage caused to the plant, AMARE, POST Application” value in [2] was 2 (2=20-39%). Also, in experiment [3], the “percentage damage caused to the plant, ECHCG, POST Application” value is 1 (1=0-19%). For the same molecule, the “percentage damage caused to the plant, IPOHE, POST Application” value in the experiment with IPOHE [4] is 3 (3=40-59%). The “percentage damage caused to the plant, SETFA, POST Application” value with Setaria faberi (SETFA) [5] was 1 (1=0-19%). Also, the “percentage damage caused to the plant, SOLNI, POST Application” value in the experiment on Solanum nigrum (SOLNI) [6] is on record as 4 (4=60-79%). Moreover, in [7], the “percentage damage caused to the plant, ALOMY, PRE Application” value was 1 (1=0-19%). For the same molecule, the “percentage damage caused to the plant, AMARE, PRE Application” value in experiment [8] is recorded as 4 (4=60-79%). For the same molecule, in [9], the “percentage damage caused to the plant, ECHCG, PRE Application” value is listed as 1 (1=0-19%). Besides, the “percentage damage caused to the plant, IPOHE, PRE Application” value in the experiment with IPOHE [10] is reported as 1 (1=0-19%). In addition, the “percentage damage caused to the plant, SETFA, PRE Application” value with Setaria faberi (SETFA) [11] is on record as 1 (1=0-19%). The “percentage damage caused to the plant, SOLNI, PRE Application” value in the experiment on Solanum nigrum (SOLNI) [12] is 2 (2=20-39%).

As for `CCc1nnc(NC(=O)c2ccc(C(F)(F)F)cc2S(C)(=O)=O)n1C` [Compound 1.010], the “percentage damage caused to the plant, ALOMY, POST Application” value in experiment [1] is reported as 2 (2=20-39%). In experiment [2], the “percentage damage caused to the plant, AMARE, POST Application” value is reported as 1 (1=0-19%). Moreover, the “percentage damage caused to the plant, ECHCG, POST Application” value in [3] was 2 (2=20-39%). In addition, the “percentage damage caused to the plant, IPOHE, POST Application” value with IPOHE [4] is recorded as 2 (2=20-39%). Moreover, the “percentage damage caused to the plant, SETFA, POST Application” value in the experiment on Setaria faberi (SETFA) [5] was 2 (2=20-39%). In addition, in the experiment with Solanum nigrum (SOLNI) [6], the “percentage damage caused to the plant, SOLNI, POST Application” value was 2 (2=20-39%). In addition, in experiment [7], the “percentage damage caused to the plant, ALOMY, PRE Application” value was 1 (1=0-19%). In addition, in experiment [8], the “percentage damage caused to the plant, AMARE, PRE Application” value was 1 (1=0-19%). Also, the “percentage damage caused to the plant, ECHCG, PRE Application” value in experiment [9] is given as 1 (1=0-19%). Moreover, the “percentage damage caused to the plant, IPOHE, PRE Application” value with IPOHE [10] is recorded as 1 (1=0-19%). Moreover, the “percentage damage caused to the plant, SETFA, PRE Application” value with Setaria faberi (SETFA) [11] was 1 (1=0-19%). In addition, in the experiment on Solanum nigrum (SOLNI) [12], the “percentage damage caused to the plant, SOLNI, PRE Application” value is listed as 1 (1=0-19%).

`CCn1cnnc1NC(=O)c1ccc(C(F)(F)F)cc1S(C)(=O)=O` [Compound 1.011]: the “percentage damage caused to the plant, ALOMY, POST Application” value in experiment [1] was 2 (2=20-39%). Also, the “percentage damage caused to the plant, AMARE, POST Application” value in [2] was 5 (5=80-100%). Also, the “percentage damage caused to the plant, ECHCG, POST Application” value in [3] was 4 (4=60-79%). Besides, in the experiment with IPOHE [4], the “percentage damage caused to the plant, IPOHE, POST Application” value was 5 (5=80-100%). The “percentage damage caused to the plant, SETFA, POST Application” value with Setaria faberi (SETFA) [5] is recorded as 2 (2=20-39%). For the same molecule, in the experiment with Solanum nigrum (SOLNI) [6], the “percentage damage caused to the plant, SOLNI, POST Application” value is listed as 5 (5=80-100%). Besides, the “percentage damage caused to the plant, ALOMY, PRE Application” value in experiment [7] is given as 1 (1=0-19%). The “percentage damage caused to the plant, AMARE, PRE Application” value in experiment [8] is reported as 5 (5=80-100%). Besides, the “percentage damage caused to the plant, ECHCG, PRE Application” value in experiment [9] was 4 (4=60-79%). For the same molecule, the “percentage damage caused to the plant, IPOHE, PRE Application” value with IPOHE [10] is recorded as 4 (4=60-79%). Further, the “percentage damage caused to the plant, SETFA, PRE Application” value in the experiment on Setaria faberi (SETFA) [11] was 2 (2=20-39%). Moreover, the “percentage damage caused to the plant, SOLNI, PRE Application” value with Solanum nigrum (SOLNI) [12] is on record as 5 (5=80-100%).
